Test results as given in patent publication US12109303B2, “Orally dissolving antimicrobial film compositions and methods of their use” (ISHA Therapeutics LLC, priority 2022, dated 2024).
Values after ≈ are worked out from the molar mass of the structure shown. Like-named read-outs stand apart in the source and are kept apart here.

Legend:
[1] = Solubility in MiliQ water, quantified by HPLC; type: physicochemical; conditions: thermodynamic from solid, 0.5 mL MiliQ water, room temperature, 6 hours shaking, read-out: Solubility: average concentration of amphotericin B
[2] = limited solubility and permeability; cited from earlier work
Candida albicans [3] = experiment: Growth inhibition assay with resazurin colorimetric readout (MIC48h); type: cell-based; conditions: RPMI 1640, 30° C., 48±2 hours, unmodified drug in DMSO, film in aqueous media
Excerpt: (§1) Tis Example provides a description of antifungal efficacy testing wherein minimum inhibitor concentration (MIC) of the active pharmaceutical ingredient amphotericin B in the orally dissolvable films disclosed herein compared to that of unmodified amphotericin B. The test organism utilized in this experiment was Candida albicans.
Three to five colonies of a single Candida albicans strain were selected from stock YPD agar (agar comprising yeast extract, peptone, and dextrose; also referred to as YEPD agar) plates and suspended in Roswell Park Memorial Institute (RPMI) 1640 medium. The process was repeated to form a number of suspensions of Candida albicans. The Candida albicans suspensions were then each diluted to achieve an initial inoculum with an Abs600 of 0.010.
Test compositions of unmodified amphotericin B in DMSO and orally dissolvable films of amphotericin B in aqueous media were added, followed by serial dilution of the RPMI media.
A growth inhibition assay was performed in triplicate and results determined using a resazurin colorimetric assay. All plated compositions were incubated at 30° C. for 48±2 hours. […] After incubation, 20 μL of resazurin dye (0.02% w/v) was added to each well and observed for a change in dye color to determine cell viability.

Candida albicans [4] = experiment: Resazurin microtiter assay (REMA) MIC; type: cell-based
Description: as §1, with “This” for “Tis”, “organisms” for “organism”, “were Candida tropicalis and” for “was”
(§2) A resazurin microtiter assay (REMA) assay was performed using orally dissolvable films prepared according to the process described in Example 3 and unmodified amphotericin B. Samples were run in triplicate as Sets 1-3 for each test material against each pathogen.
(§3) Images of the microtiter plates used to conduct this experiment are shown in FIG. 5, illustrating the results of MIC assay. […] Results of the orally dissolvable film (“ODF (A)”) and unmodified amphotericin B (“AmpB (B)”) against Candida tropicalis and Candida albicans are shown in the microtiter plates on the left and right, respectively. The first row of each microtiter plate (top) contains a positive control (“P.C.”). The second row of each microtiter plate contains a negative control (“N.C.”).

Candida tropicalis = experiment: Resazurin microtiter assay (REMA) MIC; type: cell-based
Description: as §1, with “This” for “Tis”, “organisms” for “organism”, “were Candida tropicalis and” for “was”
as §2, §3

[5] = read-out: Minimum Inhibitory Concentration, Avg.
[6] = read-out: Minimum Inhibitory Concentration, Set 1
[7] = read-out: Minimum Inhibitory Concentration, Set 2
[8] = read-out: Minimum Inhibitory Concentration, Set 3

solubility at 6 h [1]: 630 µg/mL (≈ 682 µM) | MIC (Candida albicans [3]): 1.25 µM (≈ 1.16 µg/mL) | MIC (Candida albicans [4]; read-out: Average MIC): 1.1 µg/mL (≈ 1.19 µM) | MIC (Candida albicans [4]; [5]): 1.1 µg/mL (≈ 1.19 µM) | MIC (Candida albicans [4]; [6]): 1.1 µg/mL (≈ 1.19 µM) | MIC (Candida albicans [4]; [7]): 1.1 µg/mL (≈ 1.19 µM) | MIC (Candida albicans [4]; [8]): 1.1 µg/mL (≈ 1.19 µM) | MIC (Candida tropicalis; read-out: Average MIC): 1.1 µg/mL (≈ 1.19 µM) | MIC (Candida tropicalis; [5]): 1.1 µg/mL (≈ 1.19 µM) | MIC (Candida tropicalis; [6]): 1.1 µg/mL (≈ 1.19 µM) | MIC (Candida tropicalis; [7]): 1.1 µg/mL (≈ 1.19 µM) | MIC (Candida tropicalis; [8]): 1.1 µg/mL (≈ 1.19 µM)
SMILES: C[C@@H]1[C@H](O)[C@@H](C)/C=C/C=C/C=C/C=C/C=C/C=C/C=C/[C@H](O[C@@H]2O[C@H](C)[C@@H](O)[C@H](N)[C@@H]2O)C[C@@H]2O[C@](O)(C[C@@H](O)C[C@@H](O)[C@H](O)CC[C@@H](O)C[C@@H](O)CC(=O)O[C@H]1C)C[C@H](O)[C@H]2C(=O)O [AmpB, (1R,3S,5R,6R,9R,11R,15S,16R,17R,18S,19E,21E, 23E, 25E, 27E,29E,31E,33R,35S,36R,37S)-33-[(2R,3S,4S,5S,6R)-4-amino-3,5-di hydroxy-6-methyloxan-2-yl] oxy-1,3,5,6,9,11,17,37-octahydroxy-15,16,18-trimethyl-13-oxo-14,39-dioxabicyclo[33.3.1]nonatriaconta-19,21,23, 25, 27,29,31-heptaene-36-carboxylic acid]
Biopharmaceutics Classification System (BCS) class [2]: class IV
